Results reported in ChEMBL document CHEMBL4507268 (2021).

Legend:
Conditions in all cases: Compound concentration 1.0 uM
[1] = target: Proto-oncogene tyrosine-protein kinase Src (Homo sapiens) (UniProt P12931)
[2] = target: Protein kinase C alpha type (Homo sapiens) (UniProt P17252)
[3] = target: Serine/threonine-protein kinase SBK1 (Homo sapiens) (UniProt Q52WX2)
[4] = target: T1, Tyrosine-protein kinase JAK3 (Homo sapiens) (UniProt P52333)
T1 sequence (whole entry): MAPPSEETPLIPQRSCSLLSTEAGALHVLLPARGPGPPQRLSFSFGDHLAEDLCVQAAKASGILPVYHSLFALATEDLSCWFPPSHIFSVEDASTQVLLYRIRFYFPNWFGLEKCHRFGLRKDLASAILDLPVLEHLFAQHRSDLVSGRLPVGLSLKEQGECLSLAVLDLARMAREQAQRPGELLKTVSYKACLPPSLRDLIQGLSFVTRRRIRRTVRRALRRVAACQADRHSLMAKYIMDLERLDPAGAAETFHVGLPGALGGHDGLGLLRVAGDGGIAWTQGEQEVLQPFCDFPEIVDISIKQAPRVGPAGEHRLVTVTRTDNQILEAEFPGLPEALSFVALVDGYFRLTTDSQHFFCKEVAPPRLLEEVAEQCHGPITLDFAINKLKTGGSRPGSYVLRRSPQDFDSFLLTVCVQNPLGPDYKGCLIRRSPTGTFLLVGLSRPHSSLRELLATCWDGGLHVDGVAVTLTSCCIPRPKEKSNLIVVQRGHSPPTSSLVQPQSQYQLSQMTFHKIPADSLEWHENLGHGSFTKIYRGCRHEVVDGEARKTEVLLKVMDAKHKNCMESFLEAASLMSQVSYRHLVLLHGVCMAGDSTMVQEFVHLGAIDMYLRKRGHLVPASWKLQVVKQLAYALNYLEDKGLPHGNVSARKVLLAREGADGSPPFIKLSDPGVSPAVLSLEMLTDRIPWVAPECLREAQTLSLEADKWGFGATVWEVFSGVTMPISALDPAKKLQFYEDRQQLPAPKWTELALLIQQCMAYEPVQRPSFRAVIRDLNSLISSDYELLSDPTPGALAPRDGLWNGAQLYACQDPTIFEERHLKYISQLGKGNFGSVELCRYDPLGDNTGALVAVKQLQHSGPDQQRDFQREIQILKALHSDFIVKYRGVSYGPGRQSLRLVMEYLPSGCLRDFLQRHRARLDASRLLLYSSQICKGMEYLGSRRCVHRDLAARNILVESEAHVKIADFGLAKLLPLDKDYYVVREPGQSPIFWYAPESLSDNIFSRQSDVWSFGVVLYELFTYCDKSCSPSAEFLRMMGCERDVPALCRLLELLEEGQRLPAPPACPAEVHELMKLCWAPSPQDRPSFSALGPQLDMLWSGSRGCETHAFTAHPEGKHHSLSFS

[5] = target: Mitogen-activated protein kinase 1 (Homo sapiens) (UniProt P28482)
[6] = target: Insulin-like growth factor 1 receptor (Homo sapiens) (UniProt P08069)
[7] = target: Serine/threonine-protein kinase MARK1 (Homo sapiens) (UniProt Q9P0L2)
[8] = target: Calcium/calmodulin-dependent protein kinase kinase 2 (Homo sapiens) (UniProt Q96RR4)
[9] = target: Vascular endothelial growth factor receptor 2 (Homo sapiens) (UniProt P35968)
[10] = target: Phosphatidylinositol 4,5-bisphosphate 3-kinase catalytic subunit gamma isoform (Homo sapiens) (UniProt P48736)
[11] = target: Macrophage colony-stimulating factor 1 receptor (Homo sapiens) (UniProt P07333)
[12] = target: Serine/threonine-protein kinase A-Raf (Homo sapiens) (UniProt P10398)
[13] = target: T2, Activin receptor type-1B (Homo sapiens) (UniProt P36896)
T2 sequence (whole entry): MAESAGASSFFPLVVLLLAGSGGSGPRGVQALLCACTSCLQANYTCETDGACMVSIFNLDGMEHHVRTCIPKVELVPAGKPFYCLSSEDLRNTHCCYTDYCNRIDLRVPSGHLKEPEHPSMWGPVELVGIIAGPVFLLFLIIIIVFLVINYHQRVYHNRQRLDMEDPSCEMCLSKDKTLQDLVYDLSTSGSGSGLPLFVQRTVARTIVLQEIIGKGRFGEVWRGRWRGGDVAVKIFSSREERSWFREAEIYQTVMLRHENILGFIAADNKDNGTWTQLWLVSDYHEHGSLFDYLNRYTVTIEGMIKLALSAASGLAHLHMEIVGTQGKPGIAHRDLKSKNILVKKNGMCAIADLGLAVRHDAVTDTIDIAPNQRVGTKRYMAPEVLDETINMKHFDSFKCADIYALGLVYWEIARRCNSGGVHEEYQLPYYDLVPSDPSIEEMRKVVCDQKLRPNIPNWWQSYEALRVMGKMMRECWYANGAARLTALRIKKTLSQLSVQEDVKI

[14] = target: Calcium/calmodulin-dependent protein kinase type II subunit gamma (Homo sapiens) (UniProt Q13555)
[15] = target: Calcium/calmodulin-dependent protein kinase type 1 (Homo sapiens) (UniProt Q14012)
[16] = target: Serine/threonine-protein kinase PLK1 (Homo sapiens) (UniProt P53350)

Measured: % residual kinase activity

Chain of Macrophage colony-stimulating factor 1 receptor (Homo sapiens) (P07333 whole entry): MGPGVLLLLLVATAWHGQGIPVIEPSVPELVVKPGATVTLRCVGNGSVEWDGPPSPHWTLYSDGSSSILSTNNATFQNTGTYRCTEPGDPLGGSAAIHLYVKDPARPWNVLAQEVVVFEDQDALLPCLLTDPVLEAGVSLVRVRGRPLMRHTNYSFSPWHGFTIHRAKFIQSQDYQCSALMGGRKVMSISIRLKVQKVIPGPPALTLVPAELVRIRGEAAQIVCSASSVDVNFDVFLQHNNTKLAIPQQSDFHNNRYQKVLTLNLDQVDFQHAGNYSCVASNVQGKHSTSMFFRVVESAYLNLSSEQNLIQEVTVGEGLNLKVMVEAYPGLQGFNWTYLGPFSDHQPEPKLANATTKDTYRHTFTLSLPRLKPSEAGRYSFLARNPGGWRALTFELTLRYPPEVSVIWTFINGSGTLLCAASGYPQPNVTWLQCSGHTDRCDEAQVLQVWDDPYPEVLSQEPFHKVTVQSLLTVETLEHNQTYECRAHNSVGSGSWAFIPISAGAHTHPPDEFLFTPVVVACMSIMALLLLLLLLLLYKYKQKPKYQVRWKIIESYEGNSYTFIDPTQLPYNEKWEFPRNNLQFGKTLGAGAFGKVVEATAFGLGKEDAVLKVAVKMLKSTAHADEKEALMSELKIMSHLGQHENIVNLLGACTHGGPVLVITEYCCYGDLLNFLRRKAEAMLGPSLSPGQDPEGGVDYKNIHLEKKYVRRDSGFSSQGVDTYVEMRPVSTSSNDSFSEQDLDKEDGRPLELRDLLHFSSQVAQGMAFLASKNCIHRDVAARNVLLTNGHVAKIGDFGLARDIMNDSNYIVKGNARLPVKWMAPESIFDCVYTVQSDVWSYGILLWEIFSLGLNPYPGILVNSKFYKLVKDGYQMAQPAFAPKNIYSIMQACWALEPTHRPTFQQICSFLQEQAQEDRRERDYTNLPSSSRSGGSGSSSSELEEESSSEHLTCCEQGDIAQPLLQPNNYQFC
Chain of Calcium/calmodulin-dependent protein kinase kinase 2 (Homo sapiens) (Q96RR4 2-588 limits assumed): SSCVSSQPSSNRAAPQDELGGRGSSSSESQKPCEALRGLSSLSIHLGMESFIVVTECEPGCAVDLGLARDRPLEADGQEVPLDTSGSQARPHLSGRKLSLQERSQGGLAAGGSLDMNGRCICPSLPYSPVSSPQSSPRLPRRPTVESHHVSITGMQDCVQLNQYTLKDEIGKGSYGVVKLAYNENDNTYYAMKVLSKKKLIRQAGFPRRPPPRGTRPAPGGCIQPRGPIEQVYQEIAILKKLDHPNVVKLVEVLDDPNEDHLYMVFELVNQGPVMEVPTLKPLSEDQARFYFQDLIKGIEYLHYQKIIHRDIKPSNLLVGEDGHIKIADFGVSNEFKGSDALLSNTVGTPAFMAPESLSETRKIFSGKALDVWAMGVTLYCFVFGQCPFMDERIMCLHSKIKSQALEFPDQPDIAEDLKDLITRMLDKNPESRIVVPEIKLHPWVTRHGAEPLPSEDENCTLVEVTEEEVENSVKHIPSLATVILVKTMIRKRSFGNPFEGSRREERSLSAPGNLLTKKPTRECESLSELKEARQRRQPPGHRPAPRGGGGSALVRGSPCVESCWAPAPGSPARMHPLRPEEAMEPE
Chain of Serine/threonine-protein kinase PLK1 (Homo sapiens) (P53350 whole entry): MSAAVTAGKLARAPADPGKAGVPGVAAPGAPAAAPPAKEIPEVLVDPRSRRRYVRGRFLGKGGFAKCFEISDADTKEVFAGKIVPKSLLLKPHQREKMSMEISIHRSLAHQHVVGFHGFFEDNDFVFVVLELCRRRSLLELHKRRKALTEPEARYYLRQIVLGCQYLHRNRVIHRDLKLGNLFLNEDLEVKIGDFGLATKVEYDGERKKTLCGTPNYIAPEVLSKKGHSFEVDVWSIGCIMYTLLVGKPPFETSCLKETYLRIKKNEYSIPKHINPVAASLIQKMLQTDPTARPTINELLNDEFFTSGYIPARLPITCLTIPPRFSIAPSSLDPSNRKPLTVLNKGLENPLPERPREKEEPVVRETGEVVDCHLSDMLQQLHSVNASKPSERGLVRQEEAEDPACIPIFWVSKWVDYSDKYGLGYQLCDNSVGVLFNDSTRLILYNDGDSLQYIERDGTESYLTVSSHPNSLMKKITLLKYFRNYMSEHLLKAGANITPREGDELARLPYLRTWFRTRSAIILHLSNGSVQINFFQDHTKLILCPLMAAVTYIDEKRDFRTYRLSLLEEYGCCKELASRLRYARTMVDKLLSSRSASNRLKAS
Chain of Serine/threonine-protein kinase A-Raf (Homo sapiens) (P10398 whole entry): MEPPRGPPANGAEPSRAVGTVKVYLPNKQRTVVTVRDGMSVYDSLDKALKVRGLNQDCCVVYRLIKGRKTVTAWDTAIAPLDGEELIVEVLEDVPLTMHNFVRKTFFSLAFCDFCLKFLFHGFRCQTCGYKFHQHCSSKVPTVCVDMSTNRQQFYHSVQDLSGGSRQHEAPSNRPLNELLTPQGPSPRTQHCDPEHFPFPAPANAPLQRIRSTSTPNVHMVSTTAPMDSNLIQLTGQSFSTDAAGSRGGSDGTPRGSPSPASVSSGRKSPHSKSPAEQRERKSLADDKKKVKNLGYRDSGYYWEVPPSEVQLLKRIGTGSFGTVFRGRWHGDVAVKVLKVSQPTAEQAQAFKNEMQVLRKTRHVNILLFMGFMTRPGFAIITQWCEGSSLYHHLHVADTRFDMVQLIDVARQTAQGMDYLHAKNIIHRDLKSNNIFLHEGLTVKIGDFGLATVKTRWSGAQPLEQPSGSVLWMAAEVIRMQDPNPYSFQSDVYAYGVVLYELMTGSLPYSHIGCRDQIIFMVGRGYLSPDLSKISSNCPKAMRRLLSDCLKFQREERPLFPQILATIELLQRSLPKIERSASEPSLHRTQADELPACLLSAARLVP
Chain of Calcium/calmodulin-dependent protein kinase type 1 (Homo sapiens) (Q14012 whole entry, looked up): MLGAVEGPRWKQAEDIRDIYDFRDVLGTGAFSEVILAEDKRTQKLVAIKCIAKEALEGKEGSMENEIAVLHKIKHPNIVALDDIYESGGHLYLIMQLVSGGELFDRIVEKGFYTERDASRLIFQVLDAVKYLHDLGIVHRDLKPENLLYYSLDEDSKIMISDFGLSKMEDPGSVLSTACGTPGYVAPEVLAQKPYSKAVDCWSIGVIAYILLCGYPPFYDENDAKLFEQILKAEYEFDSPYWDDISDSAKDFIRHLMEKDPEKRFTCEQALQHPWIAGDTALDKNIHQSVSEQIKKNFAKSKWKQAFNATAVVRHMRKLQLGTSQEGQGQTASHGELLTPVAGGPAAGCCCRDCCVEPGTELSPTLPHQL
Chain of Insulin-like growth factor 1 receptor (Homo sapiens) (P08069 31-736 limits assumed): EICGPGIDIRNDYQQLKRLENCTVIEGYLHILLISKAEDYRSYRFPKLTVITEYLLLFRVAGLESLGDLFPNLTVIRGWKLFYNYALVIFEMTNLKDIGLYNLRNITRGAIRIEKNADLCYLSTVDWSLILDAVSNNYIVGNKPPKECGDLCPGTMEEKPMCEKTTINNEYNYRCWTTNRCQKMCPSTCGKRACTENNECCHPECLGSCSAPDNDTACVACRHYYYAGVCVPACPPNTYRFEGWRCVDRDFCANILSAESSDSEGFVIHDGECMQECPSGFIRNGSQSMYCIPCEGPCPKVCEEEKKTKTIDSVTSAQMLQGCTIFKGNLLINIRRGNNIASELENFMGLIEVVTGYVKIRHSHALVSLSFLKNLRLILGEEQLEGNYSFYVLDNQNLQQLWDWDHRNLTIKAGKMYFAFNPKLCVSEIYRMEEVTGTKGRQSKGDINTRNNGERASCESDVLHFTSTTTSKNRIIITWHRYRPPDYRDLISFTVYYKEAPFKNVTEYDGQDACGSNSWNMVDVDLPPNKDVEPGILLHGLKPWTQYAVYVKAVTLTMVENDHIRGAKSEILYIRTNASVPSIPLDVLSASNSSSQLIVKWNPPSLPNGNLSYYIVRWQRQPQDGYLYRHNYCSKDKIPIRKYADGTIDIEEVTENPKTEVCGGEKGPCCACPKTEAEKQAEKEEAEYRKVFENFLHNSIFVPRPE
Chain of Insulin-like growth factor 1 receptor (Homo sapiens) (P08069 741-1367 limits assumed): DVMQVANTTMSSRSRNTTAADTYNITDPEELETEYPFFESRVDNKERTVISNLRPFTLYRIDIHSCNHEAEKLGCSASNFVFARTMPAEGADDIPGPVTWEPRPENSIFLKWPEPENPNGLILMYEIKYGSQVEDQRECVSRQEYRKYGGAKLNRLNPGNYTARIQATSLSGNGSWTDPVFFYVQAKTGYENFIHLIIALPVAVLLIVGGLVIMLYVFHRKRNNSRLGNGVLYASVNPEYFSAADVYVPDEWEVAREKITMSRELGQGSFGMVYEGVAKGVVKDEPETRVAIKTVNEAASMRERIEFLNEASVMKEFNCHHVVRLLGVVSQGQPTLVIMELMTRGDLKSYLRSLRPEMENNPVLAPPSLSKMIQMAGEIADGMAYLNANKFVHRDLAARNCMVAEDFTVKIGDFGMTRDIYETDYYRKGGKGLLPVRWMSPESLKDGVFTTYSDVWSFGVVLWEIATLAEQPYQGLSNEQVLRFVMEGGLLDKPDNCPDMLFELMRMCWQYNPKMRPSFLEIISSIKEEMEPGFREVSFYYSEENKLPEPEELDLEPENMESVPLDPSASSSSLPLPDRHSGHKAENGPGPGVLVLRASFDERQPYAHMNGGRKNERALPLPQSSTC
Chain of Serine/threonine-protein kinase SBK1 (Homo sapiens) (Q52WX2 whole entry): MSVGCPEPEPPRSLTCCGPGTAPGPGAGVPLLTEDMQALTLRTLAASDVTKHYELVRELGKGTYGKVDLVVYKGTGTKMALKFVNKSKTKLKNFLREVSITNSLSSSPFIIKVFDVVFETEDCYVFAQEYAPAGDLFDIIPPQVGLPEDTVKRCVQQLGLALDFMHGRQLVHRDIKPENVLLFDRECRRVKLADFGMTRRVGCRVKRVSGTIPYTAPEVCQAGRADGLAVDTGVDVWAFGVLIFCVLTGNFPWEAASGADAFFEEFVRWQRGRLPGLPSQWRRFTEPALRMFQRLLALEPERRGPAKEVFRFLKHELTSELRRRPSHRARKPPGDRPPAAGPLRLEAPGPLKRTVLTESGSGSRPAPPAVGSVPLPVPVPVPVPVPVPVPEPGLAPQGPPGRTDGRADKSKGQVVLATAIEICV

CN1CCN(c2cnc3c(C4CCN(C(=O)c5ccc(OC(F)(F)F)cc5N)CC4)ncnc3c2)CC1 [BAY-885]
inactive: [1] 113% | [2] 107% | [3] 96% | [4] 118% | [5] 116% | [6] 90% | [7] 112% | [8] 102% | [9] 100% | [10] 100% | [11] 118% | [12] 96% | [13] 98% | [14] 93% | [15] 109% | [16] 115%
